From patent publication US20080064667A1, “OXAZOLE DERIVATIVES OF TETRACYCLINES” (Wyeth, priority 2003, published 2008)
Converted amounts (≈) assume the structure as drawn.

What was measured:
Assay in all cases: MIC, broth microdilution (NCCLS)
Type in all cases: cell-based
[1] = tested on: S. aureus GC4536 (Smith MP -In Vivo); conditions: Staphylococcus aureus, Mueller-Hinton II broth, 18-22 hours at 35° C.
Experimental: (§1) Methods for in Vitro Antibacterial Evaluation
(§2) The Minimum Inhibitory Concentration (MIC)
(§3) Antimicrobial susceptibility testing. The in vitro activities of the antibiotics are determined by the broth microdilution method as recommended by the National Committee for Clinical Laboratory Standards (NCCLS) (1). Mueller-Hinton II broth (MHBII)(BBL Cockeysville, Md.) is the medium employed in the testing procedures. Microtiter plates containing serial dilutions of each antimicrobial agent are inoculated with each organism to yield the appropriate density (10^5 CFU/ml) in a 100 μl final volume. The plates are incubated for 18-22 hours at 35° C. in ambient air.
(§4) 1. NCCLS. 2000. Methods for Dilution Antimicrobial Susceptibility Tests for Bacteria That Grow Aerobically; Approved Standards: M7-A5, vol. 20. National Committe for Clinical Laboratory Standards, Wayne, Pa.

[2] = tested on: E. faecalis GC2242 (Van-resistant); conditions: Enterococcus faecalis, Mueller-Hinton II broth, 18-22 hours at 35° C.
Experimental: as §1, §2, §3, §4

[3] = tested on: E. coli GC2203 (ATCC Control); conditions: Escherichia coli, Mueller-Hinton II broth, 18-22 hours at 35° C.
Experimental: as §1, §2, §3, §4

E. coli GC2270 (tet(M)) = conditions: Escherichia coli
Experimental: as §1, §2, §3, §4

[4] = tested on: S. pyogenes* GC4563 (Clinical); conditions: Streptococcus pyogenes, Mueller-Hinton II broth, 18-22 hours at 35° C.
Experimental: as §1, §2, §3, §4

[5] = tested on: H. influenzae<> GC6896 (ATCC Control); conditions: Haemophilus influenzae, Mueller-Hinton II broth, 18-22 hours at 35° C.
Experimental: as §1, §2, §3, §4

[6] = tested on: S. pneumoniae* GC4465 (Clinical); conditions: Streptococcus pneumoniae, Mueller-Hinton II broth, 18-22 hours at 35° C.
Experimental: as §1, §2, §3, §4

[7] = tested on: S. aureus GC1131 (Clinical); conditions: Staphylococcus aureus, Mueller-Hinton II broth, 18-22 hours at 35° C.
Experimental: as §1, §2, §3, §4

[8] = tested on: E. coli GC4559 (parent GC4560); conditions: Escherichia coli, Mueller-Hinton II broth, 18-22 hours at 35° C.
Experimental: as §1, §2, §3, §4

[9] = tested on: S. pneumoniae* GC1894 (Clinical); conditions: Streptococcus pneumoniae, Mueller-Hinton II broth, 18-22 hours at 35° C.
Experimental: as §1, §2, §3, §4

[10] = tested on: S. aureus GC1079 (tet(K)); conditions: Staphylococcus aureus, Mueller-Hinton II broth, 18-22 hours at 35° C.
Experimental: as §1, §2, §3, §4

E. coli GC1073 (tet(B)) = conditions: Escherichia coli
Experimental: as §1, §2, §3, §4

[11] = tested on: S. aureus GC2216 (ATCC Control); conditions: Staphylococcus aureus, Mueller-Hinton II broth, 18-22 hours at 35° C.
Experimental: as §1, §2, §3, §4

[12] = tested on: E. faecalis GC4555 (ATCC Control); conditions: Enterococcus faecalis, Mueller-Hinton II broth, 18-22 hours at 35° C.
Experimental: as §1, §2, §3, §4

[13] = tested on: E. coli GC4560 (IMP mutant); conditions: Escherichia coli
Experimental: as §1, §2, §3, §4

[14] = tested on: S. aureus GC6466 (tet(M)); conditions: Staphylococcus aureus, Mueller-Hinton II broth, 18-22 hours at 35° C.
Experimental: as §1, §2, §3, §4

[15] = tested on: C. albicans GC3066 ATCC (Control); conditions: Candida albicans, Mueller-Hinton II broth, 18-22 hours at 35° C.
Experimental: as §1, §2, §3, §4

[16] = tested on: M. catarrhalis* GC6907 (Clinical); conditions: Moraxella catarrhalis, Mueller-Hinton II broth, 18-22 hours at 35° C.
Experimental: as §1, §2, §3, §4

| Compound | MIC [1] | MIC [2] | MIC [3] | MIC (E. coli GC2270 (tet(M))) | MIC [4] | MIC [5] | MIC [6] | MIC [7] | MIC [8] | MIC [9] | MIC [10] | MIC (E. coli GC1073 (tet(B))) | MIC [11] | MIC [12] | MIC [13] | MIC [14] | MIC [15] | MIC [16] |
| --- | --- | --- | --- | --- | --- | --- | --- | --- | --- | --- | --- | --- | --- | --- | --- | --- | --- | --- |
| COc1ccc(/C=C/c2nc3cc(N(C)C)c4c(c3o2)C(=O)C2=C(O)[C@]3(O)C(=O)C(C(N)=O)=C(O)[C@@H](N(C)C)[C@@H]3C[C@@H]2C4)cc1 [Example 26, (6aR,7aS,8S,11aS)-5,8-bis(dimethylamino)-9,11a,12-trihydroxy-2-[(E)-2-(4-methoxyphenyl)ethenyl]-11,13-dioxo-6,6a,7,7a,8,11,11a,13-octahydrotetraceno[2,1-d][1,3]oxazole-10-carboxamide] | 32 µg/mL (≈ 52.1 µM) | 16 µg/mL (≈ 26 µM) | > 64 µg/mL | > 64 µg/mL | 64 µg/mL (≈ 104 µM) | > 64 µg/mL | > 64 µg/mL | 16 µg/mL (≈ 26 µM) | > 64 µg/mL | > 64 µg/mL | 32 µg/mL (≈ 52.1 µM) | > 64 µg/mL | 16 µg/mL (≈ 26 µM) | 32 µg/mL (≈ 52.1 µM) | 32 µg/mL (≈ 52.1 µM) | 16 µg/mL (≈ 26 µM) | > 64 µg/mL | > 64 µg/mL |
| COc1cccc(/C=C/c2nc3cc(N(C)C)c4c(c3o2)C(=O)C2=C(O)[C@]3(O)C(=O)C(C(N)=O)=C(O)[C@@H](N(C)C)[C@@H]3C[C@@H]2C4)c1 [Example 27, (6aR,7aS,8S,11aS)-5,8-bis(dimethylamino)-9,11a,12-trihydroxy-2-[(E)-2-(3-methoxyphenyl)ethenyl]-11,13-dioxo-6,6a,7,7a,8,11,11a,13-octahydrotetraceno[2,1-d][1,3]oxazole-10-carboxamide] | 16 µg/mL (≈ 26 µM) | 8 µg/mL (≈ 13 µM) | > 64 µg/mL | > 64 µg/mL | 64 µg/mL (≈ 104 µM) | > 64 µg/mL | 64 µg/mL (≈ 104 µM) | 8 µg/mL (≈ 13 µM) | > 64 µg/mL | 64 µg/mL (≈ 104 µM) | 8 µg/mL (≈ 13 µM) | > 64 µg/mL | 8 µg/mL (≈ 13 µM) | 16 µg/mL (≈ 26 µM) | 32 µg/mL (≈ 52.1 µM) | 16 µg/mL (≈ 26 µM) | > 64 µg/mL | > 64 µg/mL |
| COc1ccccc1/C=C/c1nc2cc(N(C)C)c3c(c2o1)C(=O)C1=C(O)[C@]2(O)C(=O)C(C(N)=O)=C(O)[C@@H](N(C)C)[C@@H]2C[C@@H]1C3 [Example 28, (6aR,7aS,8S,11aS)-5,8-bis(dimethylamino)-9,11a,12-trihydroxy-2-[(E)-2-(2-methoxyphenyl)ethenyl]-11,13-dioxo-6,6a,7,7a,8,11,11a,13-octahydrotetraceno[2,1-d][1,3]oxazole-10-carboxamide] | 16 µg/mL (≈ 26 µM) | 8 µg/mL (≈ 13 µM) | > 64 µg/mL | > 64 µg/mL | 16 µg/mL (≈ 26 µM) | > 64 µg/mL | 32 µg/mL (≈ 52.1 µM) | 8 µg/mL (≈ 13 µM) | > 64 µg/mL | 64 µg/mL (≈ 104 µM) | 16 µg/mL (≈ 26 µM) | > 64 µg/mL | 8 µg/mL (≈ 13 µM) | 16 µg/mL (≈ 26 µM) | 16 µg/mL (≈ 26 µM) | 8 µg/mL (≈ 13 µM) | > 64 µg/mL | 64 µg/mL (≈ 104 µM) |
| CN(C)c1cc2nc(/C=C/c3ccc(F)cc3)oc2c2c1C[C@H]1C[C@H]3[C@H](N(C)C)C(O)=C(C(N)=O)C(=O)[C@@]3(O)C(O)=C1C2=O [Example 29, (6aR,7aS,8S,11aS)-5,8-bis(dimethylamino)-2-[(E)-2-(4-fluorophenyl)ethenyl]-9,11a,12-trihydroxy-11,13-dioxo-6,6a,7,7a,8,11,11a,13-octahydrotetraceno[2,1-d][1,3]oxazole-10-carboxamide] | 8 µg/mL (≈ 13.3 µM) | 8 µg/mL (≈ 13.3 µM) | > 64 µg/mL | > 64 µg/mL | 16 µg/mL (≈ 26.6 µM) | > 64 µg/mL | 32 µg/mL (≈ 53.1 µM) | 8 µg/mL (≈ 13.3 µM) | > 64 µg/mL | 32 µg/mL (≈ 53.1 µM) | 8 µg/mL (≈ 13.3 µM) | > 64 µg/mL | 8 µg/mL (≈ 13.3 µM) | 8 µg/mL (≈ 13.3 µM) | 8 µg/mL (≈ 13.3 µM) | 8 µg/mL (≈ 13.3 µM) | > 64 µg/mL | 16 µg/mL (≈ 26.6 µM) |
